Common to all, as to type: cell-based, human
The subject of experiment [1] is HI650 (Lung Adenocarcinoma). Nature of the experiment: Cell viability analysis, lung cancer HI650. The following applies: Homo sapiens.
The test system of experiment [2] is AGS (Gastric Adenocarcinoma). Description: Cell viability analysis, gastric cancer AGS. Particulars: Homo sapiens.
Experiment [3] concerns HL-60 (Acute Promyelocytic Leukemia). Nature of the experiment: Cell viability analysis, leukemia HL-60. Particulars: Homo sapiens.
Experiment [4] has as its system LoVo (Colorectal Adenocarcinoma). Description: Cell viability analysis, colon cancer LoVo. The following applies: Homo sapiens, LoVo.
Experiment [5] relates to PC3 (p53−) (Prostate Adenocarcinoma). Description: Cell viability analysis, prostate cancer PC3. Particulars: Homo sapiens.
For experiment [6], the system named is HepG2 (Hepatocellular Carcinoma). Description: Cell viability analysis, hepatic cancer HepG2. Particulars: Homo sapiens.
For experiment [7], the system named is TSGH-8301 (Urinary Bladder Carcinoma). Description: Cell viability analysis, bladder cancer TSGH-8301. The following applies: Homo sapiens.
Experiment [8] concerns A549 (Lung Adenocarcinoma). Description: Cell viability analysis, lung cancer A549. Particulars: Homo sapiens.
Another experiment relates to cancer cell lines. Description: Cell viability analysis (WST-1) on cancer cell lines. Particulars: drug 10 μM, 72 hours, WST-1; Table 3.
The test system of experiment [9] is MCF7 (Mammary Gland, Adenocarcinoma). Description: Cell viability analysis, breast cancer MCF7. The following applies: Homo sapiens.
Experiment [10] relates to HeLa (Cervix Adenocarcinoma). Nature of the experiment: Cell viability analysis, cervical cancer HeLa. Particulars: Homo sapiens, HeLa.
Experiment [11] concerns A375 (Amelanotic Melanoma). Description: Cell viability analysis, skin cancer A375. The following applies: Homo sapiens.
The test system of experiment [12] is MKN-45 (Gastric Adenocarcinoma). Description: Cell viability analysis, gastric cancer MKN-45. The following applies: Homo sapiens.
Setting [13] is: NCI-H1650, 72 h, read-out: cell viability (survival rate), H1650, drug 10 μM, 72 hours, WST-1, OD450 nm.
The mark [14] stands for this setting: 72 h, read-out: cell viability (survival rate), AGS, drug 10 μM, 72 hours, WST-1, OD450 nm.
[15] abbreviates: HL-60, 72 h, read-out: cell viability (survival rate), HL-60, drug 10 μM, 72 hours, WST-1, OD450 nm.
[16] abbreviates: 72 h, read-out: cell viability (survival rate), LoVo, drug 10 μM, 72 hours, WST-1, OD450 nm.
The mark [17] stands for this setting: 72 h, read-out: cell viability (survival rate), PC3, drug 10 μM, 72 hours, WST-1, OD450 nm.
Where [18] appears, read: HepG2, 72 h, read-out: cell viability (survival rate), HepG2, drug 10 μM, 72 hours, WST-1, OD450 nm.
[19] abbreviates: 72 h, read-out: cell viability (survival rate), TSGH, drug 10 μM, 72 hours, WST-1, OD450 nm.
The mark [20] stands for this setting: A549, 72 h, read-out: cell viability (survival rate), A549, drug 10 μM, 72 hours, WST-1, OD450 nm.
[21] abbreviates: MCF7, 72 h, read-out: cell viability (survival rate), MCF7, drug 10 μM, 72 hours, WST-1, OD450 nm.
Where [22] appears, read: 72 h, read-out: cell viability (survival rate), HeLa, drug 10 μM, 72 hours, WST-1, OD450 nm.
Setting [23] is: A-375, 72 h, read-out: cell viability (survival rate), A375, drug 10 μM, 72 hours, WST-1, OD450 nm.
Where [24] appears, read: MKN-45, 72 h, read-out: cell viability (survival rate), MKN-45, drug 10 μM, 72 hours, WST-1, OD450 nm.
[25] abbreviates: NCI-H1650, 72 h, drug 10 μM, 72 hours, WST-1, OD450 nm, read-out: cell viability (survival rate), H1650.
The mark [26] stands for this setting: 72 h, drug 10 μM, 72 hours, WST-1, OD450 nm, read-out: cell viability (survival rate), AGS.
Setting [27] is: HL-60, 72 h, drug 10 μM, 72 hours, WST-1, OD450 nm, read-out: cell viability (survival rate), HL-60.
Setting [28] is: 72 h, drug 10 μM, 72 hours, WST-1, OD450 nm, read-out: cell viability (survival rate), PC3.
[29] abbreviates: HepG2, 72 h, drug 10 μM, 72 hours, WST-1, OD450 nm, read-out: cell viability (survival rate), HepG2.
The mark [30] stands for this setting: 72 h, drug 10 μM, 72 hours, WST-1, OD450 nm, read-out: cell viability (survival rate), TSGH.
Setting [31] is: A549, 72 h, drug 10 μM, 72 hours, WST-1, OD450 nm, read-out: cell viability (survival rate), A549.
The mark [32] stands for this setting: MCF7, 72 h, drug 10 μM, 72 hours, WST-1, OD450 nm, read-out: cell viability (survival rate), MCF7.
Where [33] appears, read: 72 h, drug 10 μM, 72 hours, WST-1, OD450 nm, read-out: cell viability (survival rate), HeLa.
The mark [34] stands for this setting: A-375, 72 h, drug 10 μM, 72 hours, WST-1, OD450 nm, read-out: cell viability (survival rate), A375.
The mark [35] stands for this setting: MKN-45, 72 h, drug 10 μM, 72 hours, WST-1, OD450 nm, read-out: cell viability (survival rate), MKN-45.

5 compounds from patent publication US10105357B2, “Indication of antibiotic drugs for preparation of cancer inhibition pharmaceutical composition” (LAUNX BIOMEDICAL CO., LTD., priority 2014, dated 2018) can be followed below.

Read-outs that look alike come from different tables or passages of the source.

One may read the viability as a read-out of living cells in per cent, often relative to untreated cells.

Consider `CC(=O)N1CCN(c2ccc(OCC3COC(Cn4ccnc4)(c4ccc(Cl)cc4Cl)O3)cc2)CC1` (centres unmarked) [Ketoconazole], for which the viability at 10 µM in [1] (setting [13]) is 46.1%; in experiment [2] (setting [14]) it was 65.7%; in [3] (setting [15]), 88.3%; in experiment [4] (setting [16]), 90.3%; in experiment [5] (setting [17]), 80.1%; in [6] (setting [18]), 88.7%. Moreover, the viability at 10 µM in [7] (setting [19]) came out at 107%; in experiment [8] (setting [20]) it was 75.7%; in experiment [9] (setting [21]) it was 118%; in experiment [10] (setting [22]) it was 84.3%; in [11] (setting [23]) it was 49.2%; in [12] (setting [24]) it was 77%. The “inhibition effect on different cancer cell lines” value with cancer cell lines is “significant inhibition effect”.

Turning to `O=C(C[S+]([O-])Cc1ccco1)NC/C=C\COc1cc(CN2CCCCC2)ccn1` (centres unmarked) [Lafutidine], the viability at 10 µM came to 80.1% in experiment [1] (setting [25]); 45.5% in [2] (setting [26]); 95.3% in [3] (setting [27]); 48% in experiment [4] (setting [16]); 40.7% in [5] (setting [28]); 102% in experiment [6] (setting [29]). Further, the viability at 10 µM in [7] (setting [30]) was found to be 51.9%; in experiment [8] (setting [31]), 21.3%; in experiment [9] (setting [32]) it was 33.6%; in experiment [10] (setting [33]) it was 46.9%; in experiment [11] (setting [34]), 116%; in [12] (setting [35]), 89.6%. Moreover, the “inhibition effect on different cancer cell lines” value in the experiment on cancer cell lines is “significant inhibition effect”.

Regarding `Cc1c(OCC(F)(F)F)ccnc1C[S+]([O-])c1nc2ccccc2[nH]1` (centres unmarked) [Lansoprazole], the viability at 10 µM came to 45.5% in [1] (setting [25]); 71.5% in experiment [2] (setting [26]); 78.6% in [3] (setting [27]); 96.1% in experiment [4] (setting [16]); 94.2% in [5] (setting [28]); 72.3% in experiment [6] (setting [29]). The viability at 10 µM worked out at 109% in experiment [7] (setting [30]); 84.5% in experiment [8] (setting [31]); 141% in experiment [9] (setting [32]); 53.6% in experiment [10] (setting [33]); 60.6% in [11] (setting [34]); 74.5% in experiment [12] (setting [35]). In the experiment with cancer cell lines, the “inhibition effect on different cancer cell lines” value is “significant inhibition effect”.

Consider `COc1cccc(N(C)C(=S)Oc2ccc3c(c2)CCCC3)n1` [Liranaftate], for which the viability at 10 µM amounted to 50.7% in experiment [1] (NCI-H1650, drug 10 μM, 72 hours, WST-1, OD450 nm, read-out: cell viability (survival rate), H1650); 73.6% in experiment [2] (drug 10 μM, 72 hours, WST-1, OD450 nm, read-out: cell viability (survival rate), AGS); 92% in [3] (HL-60, drug 10 μM, 72 hours, WST-1, OD450 nm, read-out: cell viability (survival rate), HL-60); 86.6% in experiment [4] (drug 10 μM, 72 hours, WST-1, OD450 nm, read-out: cell viability (survival rate), LoVo); 92.7% in [5] (drug 10 μM, 72 hours, WST-1, OD450 nm, read-out: cell viability (survival rate), PC3); 79.8% in experiment [6] (HepG2, drug 10 μM, 72 hours, WST-1, OD450 nm, read-out: cell viability (survival rate), HepG2). Also, the viability at 10 µM in [7] (drug 10 μM, 72 hours, WST-1, OD450 nm, read-out: cell viability (survival rate), TSGH) was found to be 108%; in experiment [8] (A549, drug 10 μM, 72 hours, WST-1, OD450 nm, read-out: cell viability (survival rate), A549) it was 67.1%; in [9] (MCF7, drug 10 μM, 72 hours, WST-1, OD450 nm, read-out: cell viability (survival rate), MCF7), 84.8%; in [10] (drug 10 μM, 72 hours, WST-1, OD450 nm, read-out: cell viability (survival rate), HeLa), 89%; in experiment [11] (A-375, drug 10 μM, 72 hours, WST-1, OD450 nm, read-out: cell viability (survival rate), A375), 84.5%; in experiment [12] (MKN-45, drug 10 μM, 72 hours, WST-1, OD450 nm, read-out: cell viability (survival rate), MKN-45), 76.7%. Further, the “inhibition effect on different cancer cell lines” value in the experiment on cancer cell lines is listed as “significant inhibition effect”.

Regarding `Cc1cccc(C)c1OCC(=O)N[C@@H](Cc1ccccc1)[C@@H](O)C[C@H](Cc1ccccc1)NC(=O)[C@H](C(C)C)N1CCCNC1=O` [Lopinavir (ABT-378), Lopinavir], the viability at 10 µM is 53.1% in experiment [1] (setting [13]); 55.4% in [2] (setting [14]); 92.4% in experiment [3] (setting [15]); 85.1% in experiment [4] (setting [16]); 68% in experiment [5] (setting [17]); 93.1% in experiment [6] (setting [18]). Moreover, the viability at 10 µM in experiment [7] (setting [19]) was found to be 82.2%; in experiment [8] (setting [20]) it was 63.8%; in [9] (setting [21]), 77.9%; in experiment [10] (setting [22]) it was 116%; in [11] (setting [23]), 83.1%; in experiment [12] (setting [24]), 74.2%. Further, in the experiment with cancer cell lines, the “inhibition effect on different cancer cell lines” value was “significant inhibition effect”.
